The data set deals with Tetranychus urticae. Briefly: whole plant or invertebrate. The conditions noted are these: for Effectiveness Measured Value: next generation survivors, 10 days after spraying; for Corrected Adult Insect Mortality Rate Measured Value: adults, 3 days after spraying. As for the experimental part:
Effecacy Confirmation Test on Tetranychus urticae
Eight or ten adult female Tetranychus urticae mites were inoculated on the kidney bean leaves placed in petri dishes on the day before treating with the chemical solutions.
A flowable agent containing the compound A was diluted with a solution obtained by diluting Rabiden 3S 5,000 times in water to prepare a chemical solution A containing the compound A in which the concentration of the compound A is twice the concentration shown in Tables 1 to 4.
A preparation product containing the compound B was diluted with a solution obtained by diluting Rabiden 3S 5,000 times in water to prepare a chemical solution B containing the compound B in which the concentration of the compound B is twice the concentration shown in Tables 1 to 4.
Test number a: Tebufenpyrad: Pyranica EW (manufactured by Nippon Soda Co., Ltd.) Test numbers b and h: Hexythiazox: Nissolan wettable powder (manufactured by Nippon Soda Co., Ltd.) Test number c: Fenpyroximate: Danitron flowable (manufactured by Nippon Pesticides Co., Ltd.) Test number d: Propargite: Omite wettable powder (manufactured by Nippon Pesticides Co., Ltd.) Test number e: Tolfenpyrad: Hachi-Hachi flowable (manufactured by OAT Agrio) Test number f: Abamectin: Agrimec (manufactured by Syngenta Japan) Test number g: Etoxazole: Baroque flowable (manufactured by Kyoyu Agri co., Ltd.) Test number i: Thiodicarb: Lavin wettable powder 75 (manufactured by Bayer Crop Science) Test number j: Spinosad: Spinoace granule wettable powder (Kumiai Chemical Industry Co., Ltd.) Test number k: Isoxathion: Carphos emulsion (manufactured by Nippon Soda Co., Ltd.) Test number l: Acetamiprid: Mospilan water-soluble agent (manufactured by Nippon Soda Co., Ltd.) Test number m: Fipronil: Prince flowable (manufactured by BASF) Test number n: Tralomethrin: Scout flowable agent (manufactured by Nippon Soda Co., Ltd.) Test number o: BT agent (live spore of Bacillus thuringiensis and crystal toxin produced): Zentari granule wettable powder (manufactured by Kitako Chemical Industry Co., Ltd.) Test number p: Buprofezin: Applaud flowable (manufactured by Nippon Pesticides Co., Ltd.) Test number q: Cyromazine: Triggered liquid (manufactured by Syngenta Japan) Test number r: Tebufenozide: Romdan Flowable (manufactured by Nippon Soda Co., Ltd.) Test number s: Flubendiamide: Phoenix granule wettable powder (Nippon Agricultural Co., Ltd.) Test number t: Pyridalyl: pleo flowable (manufactured by Kyoto Agri) Test number u: Lufenuron: Match emulsion (manufactured by Syngenta Japan) Test number v: Flonicamid: Ulala DF (made by Ishihara Bioscience) Test number w: Chlorfenapyr: Kotetsu Flowable (Nippon Pesticides Co., Ltd.) Test number x: Indoxacarb: Tornado flowable (made by Kumiai Chemical Industry Co., Ltd.) Test number y: Diafenthiuron: Gamba wettable powder (manufactured by Syngenta Japan) Test number z: Thiocyclam: Ebisect wettable powder (manufactured by Mitsui Chemicals Agro) Test number aa: Emamectin-benzoate: Affirm emulsion (Syndienta Japan) Test number ab: Pyridaben: Sanmite wettable powder (manufactured by Nissan Chemical Co., Ltd.)
A mixed solution obtained by mixing equal amounts of the chemical solution A and the chemical solution B was sprayed onto a petri dish containing kidney bean leaves inoculated with Tetranychus urticae mites at an amount of 2 mg per cm^2 using a rotary spray tower (AB mixed-component area).
The chemical solution A and the chemical solution B were each diluted 2-fold with a solution obtained by diluting Labiden 3S 5000 times in water to obtain a chemical solution A′ and a chemical solution B′.
The chemical solution A′ was sprayed onto another petri dish containing kidney bean leaves inoculated with Tetranychus urticae mites at an amount of 2 mg per cm^2 using a rotary spray tower (A single-component area).

[1] abbreviates: Tetranychus urticae, in Phaseolus vulgaris, 240 h, read-out: Effectiveness Measured Value.

Where “and” joins values, the source holds several entries; their conditions need not be identical. Identical values can stand only once.

For `C/C(=N\C#N)N(C)Cc1ccc(Cl)nc1` [acetamiprid], the pest or weed control at 100 µg/mL under setting [1] amounted to 7%.

Consider `CCCOc1cc(C(F)(F)F)ccc1O[C@H]1C[C@H]2CCC[C@@H](C1)N2Oc1ccc(C(F)(F)F)cn1` [acynonapyr, 3-endo-[2-propoxy-4-(trifluoromethyl)phenoxy]-9-[5-(trifluoromethyl)-2-pyridyloxy]-9-azabicyclo[3.3.1] nonan], for which the “Effectiveness Measured Value” (single component 2.0 ppm) is 49% and 51% and 60% and 68% and 46%.

Regarding `CC(C)N1C(=O)N(c2ccccc2)CS/C1=N\C(C)(C)C` [buprofezin], the pest or weed control at 200 µg/mL under setting [1] worked out at 17%.

Take `CCOCn1c(-c2ccc(Cl)cc2)c(C#N)c(Br)c1C(F)(F)F` [chlorfenapyr]: under setting [1], the pest or weed control at 50 µg/mL amounted to 46%.

As for `Nc1nc(N)nc(NC2CC2)n1` [cyromazine], the pest or weed control at 87 µg/mL under setting [1] stood at 8%.

For the compound `CC(C)c1cc(Oc2ccccc2)cc(C(C)C)c1NC(=S)NC(C)(C)C` [diafenthiuron], the pest or weed control at 25 µg/mL under setting [1] was determined as 7%.

In the case of `CCOc1cc(C(C)(C)C)ccc1C1COC(c2c(F)cccc2F)=N1` (stereo not drawn) [etoxazole], under setting [1], the pest or weed control at 1.6 µg/mL was 85%.

For the compound `Cc1nn(C)c(Oc2ccccc2)c1C=NOCc1ccc(C(=O)OC(C)(C)C)cc1` [fenpyroximate], under setting [1], the pest or weed control at 50 µg/mL was 28%.

In the case of `N#Cc1nn(-c2c(Cl)cc(C(F)(F)F)cc2Cl)c(N)c1[S+]([O-])C(F)(F)F` (stereo not drawn) [fipronil], the pest or weed control at 22 µg/mL under setting [1] is 2%.

`N#CCNC(=O)c1cnccc1C(F)(F)F` [flonicamid]: under “single component 100 ppm”, the “Corrected Adult Insect Mortality Rate Measured Value” was 0% and the “Effectiveness Measured Value” is 3%.

Turning to `Cc1cc(C(F)(C(F)(F)F)C(F)(F)F)ccc1NC(=O)c1cccc(I)c1C(=O)NC(C)(C)CS(C)(=O)=O` [flubendiamide], under setting [1], the pest or weed control at 100 µg/mL came out at 3%.

Turning to `C[C@@H]1[C@@H](c2ccc(Cl)cc2)SC(=O)N1C(=O)NC1CCCCC1` [hexythiazox], under setting [1], the pest or weed control at 1.6 µg/mL came to 42% and the pest or weed control at 12.5 µg/mL was found to be 90%.

For the compound `COC(=O)N(C(=O)N1CO[C@@]2(C(=O)OC)Cc3cc(Cl)ccc3C2=N1)c1ccc(OC(F)(F)F)cc1` [indoxacarb], where the note is “single component 50 ppm”, the “Corrected Adult Insect Mortality Rate Measured Value” is given as 0% and the “Effectiveness Measured Value” is 0%.

`CCOP(=S)(OCC)Oc1cc(-c2ccccc2)on1` [isoxathion]: the pest or weed control at 500 µg/mL under setting [1] came out at 50%.

`O=C(NC(=O)c1c(F)cccc1F)Nc1cc(Cl)c(OC(F)(F)C(F)C(F)(F)F)cc1Cl` (stereo not drawn) [lufenuron]: under setting [1], the pest or weed control at 100 µg/mL came out at 14%.

`C#CCOS(=O)OC1CCCCC1Oc1ccc(C(C)(C)C)cc1` (stereo not drawn) [propargite]: the pest or weed control at 40 µg/mL under setting [1] stood at 18%.

As for `CC(C)(C)c1ccc(CSc2cnn(C(C)(C)C)c(=O)c2Cl)cc1` [pyridaben], the pest or weed control at 200 µg/mL under setting [1] worked out at 0%.

In the case of `FC(F)(F)c1ccc(OCCCOc2c(Cl)cc(OCC=C(Cl)Cl)cc2Cl)nc1` [pyridalyl], the pest or weed control at 100 µg/mL under setting [1] was 11%.

On to `CCc1ccc(C(=O)NN(C(=O)c2cc(C)cc(C)c2)C(C)(C)C)cc1` [tebufenozide], for which the pest or weed control at 200 µg/mL under setting [1] was found to be 10%.

As for `CCc1nn(C)c(C(=O)NCc2ccc(C(C)(C)C)cc2)c1Cl` [tebufenpyrad], the pest or weed control at 100 µg/mL under setting [1] amounted to 64%.

On to `CN(C)C1CSSSC1` [thiocyclam], for which the pest or weed control at 500 µg/mL under setting [1] was found to be 18%.

`CS/C(C)=N\OC(=O)N(C)SN(C)C(=O)O/N=C(\C)SC` [thiodicarb]: the pest or weed control at 750 µg/mL under setting [1] amounted to 0%.

On to `CCc1nn(C)c(C(=O)NCc2ccc(Oc3ccc(C)cc3)cc2)c1Cl` [tolfenpyrad], for which the pest or weed control at 150 µg/mL under setting [1] was determined as 4%.

In the case of `CC1(C)[C@H](C(=O)O[C@H](C#N)c2cccc(Oc3ccccc3)c2)[C@@H]1C(Br)C(Br)(Br)Br` (stereo partly drawn) [tralomethrin], the pest or weed control at 9.3 µg/mL under setting [1] is 1%.

For the compound abamectin, for the setting “single component 0.017 ppm”, the “Corrected Adult Insect Mortality Rate Measured Value” turned out to be 0% and the “Effectiveness Measured Value” is 11%.

As to emamectin-benzoate, for the setting “single component 0.02 ppm”, the “Corrected Adult Insect Mortality Rate Measured Value” was found to be 40% and the “Effectiveness Measured Value” was 17%.

With spinosad, under “single component 40 ppm”, the “Corrected Adult Insect Mortality Rate Measured Value” is listed as 0% and the “Effectiveness Measured Value” stood at 0%.

Source of the values: patent publication US20210100247A1, “HARMFUL ORGANISM CONTROL METHOD AND HARMFUL ORGANISM CONTROL COMPOSITION” (priority 2018, published 2021).
